US20080176913A1, “TRANSDERMAL COMPOSITIONS OF PRAMIPEXOLE HAVING ENHANCED PERMEATION PROPERTIES” (priority 2006, published 2008)
Structures can show the parent of a compound that is named as a salt. Where two headings read alike, the source gives them in different places.

Tests used:
[1] = oral administration, daily dose of about 1.5 to 4.5 mg; cited from earlier work

ionization (at pH of about 8.0): about 97% | ionization (at pH of about 10.5): about 33%
Compound: CCCN[C@H]1CCc2nc(N)sc2C1 [pramipexole, (S)-2-amino-4,5,6,7-tetrahydro-6-(propylamino)benzothiazole dihydrochloride monohydrate]
bioavailability [1]: 90%
